Measured values as given in patent US20230392115A1, “METHODS FOR MAKING AND USING DIFFERENTIATED NEURAL CELLS” (Research Development Foundation, priority 2020, published 2023).

Tests used:
[1] = system: human embryonic stem cell line HS420; assay: Immunofluorescent staining for nestin, Pax-6, Sox-1 at day 8; type: cell-based; settings: 0.2 μM
Description: Cells on glass coverslips were fixed with 1 mL of 0.5% paraformaldehyde in PBS for 30 minutes at room temperature. Cells were then washed three times with 1 mL of PBS and incubated overnight with primary antibodies in PBS containing 0.1% Triton X-100 (Sigma), and 1% bovine serumalbumine (Sigma). Cells were washed three times with 1 mL of PBS before incubation for 1 h30 min with the secondary antibody in PBS containing 0.1% Triton X-100 and 1% bovine serumalbumine. Cells were washed three times with PBS before exposure to DAPI 300 nM in PBS (Sigma) for 15 minutes at room temperature. After three washes in PBS, cells were rinsed with water and mounted in glass slides using Fluorsave reagent (Merck Millipore). • 4. Quantitative RT PCR
To study the effects of ML347, DMH1, DMH2, K02288 and A8301 on PSC, the human embryonic stem cell line HS420 was used. Cells were plated at a low density on laminin 521 (10000/cm^2) in their maintenance medium (Stemflex) and exposed 24 h later to ML347, DMH1 or DMH2 or K02288 or A8301, during one week, at the concentration of 0.2 μM in a minimal medium suited for early neural induction. Once confluent (after 8 days), cells were passaged and plated in the same medium, without neural inductors, at the density of 50000/cm^2 polyornithine/Matrigel—coated tissue culture flasks for maturation (FIG. 2). […]

HS420 cells [2] = assay: Q-RT-PCR of regionalization markers (Otx-2, Lmxla, FoxA2, FoxG1, Msx-1) at day 8; type: cell-based, human; settings: 0.2 uM, day 8, normalized to vehicle
Description: FIG. 6: HS420 cells were exposed for 8 days to dual SMAD inhibition or ALK inhibitors at the concentration of 0.2 μM. Regionalization markers were measured by Q-RT-PCR and normalized with control conditions (no compounds, vehicle alone).
(§1) Quantitative PCR was performed with Tecan Freedom Evo by using SYBR green fluorescence. cDNA was produced from RNA by using the prime script RT reagent kit (Takara). All primers were diluted at a concentration of 0.86 μM, and a master mix was used (Power SYBR Green Master Mix, Thermo Fisher Scientific).
A possible impact of ALK inhibitors on early neural specification was analysed after 8 days of differentiation and compared with dual SMAD inhibition. Several markers of early specification, focusing on forebrain/midbrain regionalization were measured by Q-RT-PCR at day 8 in neural induction medium. The following markers were tested: Otx-2 which is an anterior marker (forebrain and midbrain), Lmxla which is expressed in dorsal and ventral midbrain, FoxA2 which is a ventral marker in forebrain, midbrain and hindbrain. Was also tested the forebrain FoxG1 and Msx-1 which is more specific for early dopaminergic differentiation. Several experiments were performed (n=3) and values were normalized as the percentage of control (=no compound, vehicle lone). At this early stage (day 8), FoxA2 and Msx-1 were not detected by PCR in all conditions, showing the absence of acquisition of a ventral and dopaminergic identity. […] The Hindbrain marker HoxA2 was not detected at this stage (not shown), showing the absence of a hindbrain identity (not shown). […] DMH1 and DMH2 reduce the forebrain identity, a useful prerequisite for dopaminergic specification.

[3] = ATP-based cytotoxicity assay (Cmax allowing 100% viability); settings: human, human embryonic pluripotent stem cell line HS420; HS420 cells; ATP quantification assay; read-out: Cmax (in vitro concentration allowing 100% of survival)
Text: Multiple combinations between Noggin, LDN193189 and SB431542 are commonly used and generally called “dualSMAD inhibition”. It represents to date the most widely used way to induce early neural specification of PSC in vitro. Described herein is the report of a differentiation approach that excludes “dual Smad inhibition,” and instead achieves differentiation through the use of 5 chemicals inhibiting ALK to induce neural specification of pluripotent stem cells in vitro: ML347, DMH1, DMH2, K02288 and A8301 (Table 1). Table 1 indicates their name, PubChem ID and toxicity on the human embryonic Pluripotent Stem Cell line (ePSC) HS420, by using an ATP-based cytotoxicity assay. The Cmax was defined as the maximal concentration in vitro allowing 100% of viability of cells.

HS420 cells [4] = assay: Neuronal maturation after passage (nestin-, βIII-tubulin+ cells); type: cell-based, human; settings: cells previously exposed to ALKi 0.2 μM, passaged at day 8, maturation
Description: FIG. 7: Neuronal maturation f HS420 cells (one month) exposed to ALKi versus dualSMAD inhibition.
(§2) For neural differentiation, HS420 cells at 50% of confluency were passaged in new laminin 521-coated tissue culture plates at the density of 10000 cells/cm^2 in Stemflex medium supplemented with ROCK inhibitor (Y27632, abcam) at 10 μM. After 24 h, cells were submitted to a medium change, the Stemflex being replaced by the following neural induction medium: Neurobasal (Thermofisher) supplemented with penicillin/streptomycin 100 U/ml (Invitrogen), B-27 supplement (Thermofisher), L-glutamine 2 mM (Thermofisher). Cells were passaged at day 8 and subsequent confluency (every weeks), by the use of Accutase (Thermofisher) and replated on polyornithine/Matrigel (Sigma)-coated tissue culture flasks at the density of 50 000/cm^2. • 3. Immunocytochemistry
At confluency (occurring in these conditions at day 8), cells were passaged at a very low density with Accutase and polyornithine/Matrigel-coated dished for neuronal maturation in appropriated medium. Neuronal cells (nestin− and βIII-tubulin+ cells with a neuritic morphology) were present in cells previously exposed to the four compounds, in contrast to control conditions from which cells reduced progressively their number, with only few neuronal cells in the plate (FIG. 7).

[5] = system: human embryonic stem cell line HS420; assay: Morphology of embryonic stem cells after one week of exposure in neural induction medium; type: cell-based; settings: 0.2 μM; for morphological modifications of embryonic stem cells: vs control (DMSO)
Description: as §2
To study the effects of ML347, DMH1, DMH2, K02288 and A8301 on PSC, the human embryonic stem cell line HS420 was used. Cells were plated at a low density on laminin 521 (10000/cm^2) in their maintenance medium (Stemflex) and exposed 24 h later to ML347, DMH1 or DMH2 or K02288 or A8301, during one week, at the concentration of 0.2 μM in a minimal medium suited for early neural induction. Once confluent (after 8 days), cells were passaged and plated in the same medium, without neural inductors, at the density of 50000/cm^2 polyornithine/Matrigel—coated tissue culture flasks for maturation (FIG. 2).

[6] = system: human embryonic stem cell line HS420; assay: Q-RT-PCR of neuroectodermal markers (Pax-6, Sox-1, nestin) at day 8; type: cell-based
Description: FIG. 5: Quantification of neuroectodermal markers following exposition of HS420 cells one week with ALKi or dualSMAD inhibition. Results are expressed as the percentage of control condition (DMSO) in three independent experiments. The bars in each bar graph represent, from left to right, data from DMH-1, DMH-2, K02288, A8301, and LDN+SB.
as §1
Q-RT-PCR experiments were performed to provide a quantitative description of neural-inducing effects of the 4 compounds (in three independent experiments).

Molecule	FoxG1 expression (forebrain specification) (HS420 cells [2])	Cmax [3] [nM]	neural induction with generation of cells able to mature into neurons (HS420 cells [4])	morphological modifications of embryonic stem cells [5]	also measured
Cc1cccc(-c2nn(C(=S)Nc3ccccc3)cc2-c2ccnc3ccccc23)n1 [A8301, 3-(6-Methylpyridin-2-yl)-N-phenyl-4-(quinolin-4-yl)-1H-pyrazole-1-carbothioamide]	upregulation of FoxG1	5180 ± 1780	favoured neural induction with the generation of cells able to be further maturated into neurons	showed morphological modifications	expression of nestin, Pax-6 and Sox-1 by immunofluorescent staining [1]: homogeneously expressed nestin, Pax-6 and Sox-1; epithelial-like cells spreading between the colonies [5]: invaded as a monolayer the free tissue culture plate between the colonies
CC(C)Oc1ccc(-c2cnc3c(-c4ccnc5ccccc45)cnn3c2)cc1 [DMH1, 4-[6-(4-Propan-2-yloxyphenyl)pyrazolo[1,5-a]pyrimidin-3-yl]quinoline]	reduced FoxG1 expression	970 ± 460	favoured neural induction with the generation of cells able to be further maturated into neurons	showed morphological modifications	
c1ccc2c(-c3cnn4cc(-c5ccc(OCCN6CCOCC6)cc5)cnc34)ccnc2c1 [DMH2, 4-(2-(4-(3-(Quinolin-4-yl)pyrazolo[1,5-a]pyrimidin-6-yl)phenoxy)ethyl)morpholine]	reduced FoxG1 expression	580 ± 200	favoured neural induction with the generation of cells able to be further maturated into neurons	showed morphological modifications	
COc1cc(-c2cc(-c3cccc(O)c3)cnc2N)cc(OC)c1OC [K02288, 3-[6-Amino-5-(3,4,5-Trimethoxyphenyl)pyridin-3-Yl]phenol]		530 ± 250	favoured neural induction with the generation of cells able to be further maturated into neurons	showed morphological modifications	expression of nestin, Pax-6 and Sox-1 by immunofluorescent staining [1]: homogeneously expressed nestin, Pax-6 and Sox-1; epithelial-like cells spreading between the colonies [5]: invaded as a monolayer the free tissue culture plate between the colonies
c1ccc2c(-c3cnn4cc(-c5ccc(N6CCNCC6)cc5)cnc34)ccnc2c1 [LDN193189]					expression of Pax-6, Sox-1 and nestin mRNAs compared to control ([6]; 0.5 μM): increased the expression of Pax-6, Sox-1 and nestin mRNAs
COc1ccc(-c2cnc3c(-c4cccc5ncccc45)cnn3c2)cc1 [ML347, 5-[6-(4 Methoxyphenyl)pyrazolo[1,5-a]pyrimidin-3-yl]quinoline]		580 ± 200			
NC(=O)c1ccc(-c2nc(-c3ccc4c(c3)OCO4)c(-c3ccccn3)[nH]2)cc1 [SB431542, 4-(4-(Benzo[d][1,3]dioxol-5-yl)-5-(pyridin-2-yl)-1H-imidazol-2-yl)benzamide]					Sox-1 mRNA ([6]; alone at 10 μM): moderate increase; expression of the three markers (Pax-6, Sox-1, nestin mRNAs) ([6]; alone at 10 μM): did not increase the three markers
Noggin: Noggin protein, BMP inhibitor, provided by Miltenyi Biotec (ref 130-103-456) (protein, UniProt Q13253 28-232, looked up) Noggin: QHYLHIRPAPSDNLPLVDLIEHPDPIFDPKEKDLNETLLRSLLGGHYDPGFMATSPPEDRPGGGGGAAGGAEDLAELDQLLRQRPSGAMPSEIKGLEFSEGLAQGKKQRLSKKLRRKLQMWLWSQTFCPVLYAWNDLGSRFWPRYVKVGSCFSKRSCSVPEGMVCKPSKSVHLTVLRWRCQRRGGQRCGWIPIQYPIISECKCSC					effect on neuroectodermal marker mRNAs ([6]; alone at 100 ng/ml): moderate effect
